Test results as given in US20220022465A1, “METHODS AND COMPOSITIONS FOR REPELLING BIRDS IN CROP PLANTS” (Bayer Aktiengesellschaft, priority 2019, published 2022).

Tested on: pigeons
Test: Third repellency test 3.3, compared with pigeons offered untreated seeds in parallel at Day 0
Assay type: in vivo
Source text: The test procedure was however slightly changed compared to the trials in Examples 3.1 and 3.2. Indeed, instead of simply comparing the effect of the tested compositions against the untreated seeds offered to the pigeons at Day-1, here a set of the pigeons was also offered untreated seeds at Day 0 in parallel to the set of pigeons being offered the seeds treated with a composition. The results for the set of pigeons having received the treated seeds are therefore compared to the results for the set of pigeons having received the untreated seeds in parallel at Day 0 (instead of the results for the set of the pigeons having received the untreated seeds at Day-1). Two trials under this setting have been performed with different compositions.
Trial 1: • Black pepper at the dose of 40.5 ml/50000 corn seeds • Garlic at the dose of 4.5 ml/50000 corn seeds • Mixture of Black pepper (90%) and garlic (10%) at the dose of 45 ml/50000 corn seeds
Trial 2: • Black pepper at the dose of 40.5 ml/50000 corn seeds • Garlic at the dose of 4.5 ml/50000 corn seeds • Mixture of Black pepper (90%) and garlic (10%) at the dose of 45 ml/50000 corn seeds • Thiram at the dose of 45 ml/50000 corn seeds

What does the source list for CN(C)C(=S)SSC(=S)N(C)C [Thiram]?
Percentage (%) of reduction of feed consumption (Trial 2, 45 ml per 50000 maize seeds): 65%; Repellency effect on seed consumption, in words (test 3.3, doses of Table 4): good repellency effect on seed consumption
